# Measurements reported in patent US6413952B1, “Agonizing dimeric cell-surface receptors with a receptor binding moiety and chelating metal” (SmithKline Beecham Corporation, priority 1997, dated 2002).
# Entries after “also recorded” stand apart in the source; their conditions may differ.
# T1: G-CSF receptor (Mus musculus, UniProt P40223)
# T1 construct: they express endogenous G-CSF receptors; endogenous in cells; host or cells: NFS60 murine myeloid cell line with a G-CSF-responsive luciferase reporter
# T1 sequence (P40223 26-837): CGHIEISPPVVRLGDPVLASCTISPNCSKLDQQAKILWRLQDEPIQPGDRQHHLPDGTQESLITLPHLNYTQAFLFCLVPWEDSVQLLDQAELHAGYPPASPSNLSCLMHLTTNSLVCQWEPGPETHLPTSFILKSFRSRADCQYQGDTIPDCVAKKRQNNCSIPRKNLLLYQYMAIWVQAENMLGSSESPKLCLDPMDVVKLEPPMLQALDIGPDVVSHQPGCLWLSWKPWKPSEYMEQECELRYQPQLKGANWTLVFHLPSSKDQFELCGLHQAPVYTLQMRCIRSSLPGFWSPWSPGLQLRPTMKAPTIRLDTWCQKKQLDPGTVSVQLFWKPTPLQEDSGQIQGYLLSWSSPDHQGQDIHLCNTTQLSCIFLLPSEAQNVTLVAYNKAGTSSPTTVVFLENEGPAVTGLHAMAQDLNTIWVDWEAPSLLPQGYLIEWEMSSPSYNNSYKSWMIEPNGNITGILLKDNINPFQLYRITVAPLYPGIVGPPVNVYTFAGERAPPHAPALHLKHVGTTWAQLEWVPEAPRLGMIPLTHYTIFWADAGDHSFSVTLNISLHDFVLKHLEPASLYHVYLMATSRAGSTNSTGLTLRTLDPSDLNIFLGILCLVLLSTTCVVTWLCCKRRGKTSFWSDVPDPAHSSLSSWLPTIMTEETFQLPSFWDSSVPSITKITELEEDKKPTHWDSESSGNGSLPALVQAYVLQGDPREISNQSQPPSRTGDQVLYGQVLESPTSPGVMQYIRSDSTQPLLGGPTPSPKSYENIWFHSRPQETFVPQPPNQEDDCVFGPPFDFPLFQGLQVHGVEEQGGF
# How the values were obtained:
# G-CSF receptor [1] = biological target: T1, G-CSF receptor; test: Luciferase reporter gene assay on G-CSF-responsive NFS60 cell line; assay type: cell-based, murine; conditions: NFS60 cells, absence of zinc (FIG. 1)
# Method: Activity of compound 1a is below the threshold of 150% over background. The study was performed as a Luciferase assay configured on the G-CSF-responsive NFS60 cell line as described in Tian et al., Science 281, 257-259 (1998). The experiments shown in FIGS. 2-8 used the same NFS60 cell line.
# Compounds of the present invention are tested for potency as agonist of a dimeric cell-surface receptor in a Luciferase reporter gene assay such as described in Tian et al., Science 281, 257-259 (1998). For example, for G-CSF NFS60 cells (Holmes, et al., Proc. Natl. Acad. Sci. USA 82: 6687-6691 (1985)) are selected because they express endogenous G-CSF receptors closely matching the pattern of STAT (signal transducers and activators of transcription) activation observed in primary murine and human bone marrow cells.
# G-CSF receptor [2] = biological target: T1, G-CSF receptor; test: Luciferase assay on NFS60 cells in the presence of EDTA / metal chlorides; assay type: cell-based, murine; conditions: for effect of EDTA on agonist (luciferase) activity: EDTA 1.2 and 5 millimolar, media contained 1-5 uM zinc(II) (FIGS. 3, 4)
# Method: FIG. 3 is an analysis of the effect of ethylenediaminetetraacetic acid (as used herein—EDTA) on the activity of Compound 1a (from Example 1) in NFS60 cells. Shown are luciferase response curves of Compound 1a at the indicated concentrations and in the presence of various concentrations of EDTA. […] The media in this assay contained a small amount (1-5 uM) of zinc(II).
# FIG. 4 is an analysis of the effect of EDTA on the activity of recombinant G-CSF on NFS60 cells. Shown are luciferase response curves of recombinant G-CSF at the indicated concentrations and in the presents of various concentrations of EDTA. EDTA at both 1.2 and 5 millimolar has little effect on the activity of recombinant G-CSF in the assay.
# FIGS. 5 and 6 depict an analysis of the activity of metal chlorides alone on the basal luciferase level of NFS60 cells. Shown are luciferase response curves of the indicated metal chlorides at various concentrations. None of the metals have a meaningful effect on the basal luciferase levels at concentrations equal or less than 10 micromolar.
# FIGS. 7 and 8 show an analysis of the effect of metal chlorides on the EDTA depleted activity of Compound 1a on NFS60 cells. Shown are luciferase response curves as effected by the indicated metal chlorides. […] None of the other metals tested could overcome the inhibitory effect of EDTA.
# In order to determine the requisiteness of metal chelation of small organic molecules to agonist activity at dimeric cell-surface receptors, the above luciferase assay was performed on the G-CSF receptor in the presence of EDTA. EDTA is a strong metal chelator and had as its only effect, the removal of zinc and other metals from the ligand-receptor interaction.
luciferase activity over background (G-CSF receptor [1]),Molecule,effect of EDTA on agonist (luciferase) activity (G-CSF receptor [2]),"effect of metal chlorides on the EDTA depleted luciferase activity of Compound 1a (G-CSF receptor [2]; 50 micromolar EDTA, metal 0.5-10 micromolar (FIGS. 7, 8))"
< 150%,"c1ccc(C23NC(=Nc4nc5ccccc5[nH]4)NC2(c2ccccn2)NC(=Nc2nc4ccccc4[nH]2)N3)nc1 (stereo not shown) [Compound 1a, 2,5-Bis[2-benzimidazolylimino]-3a,6a-bis(2-pyridyl)-1,2,3,3a,4,5,6,6a-octahydroimidazo[4,5-d]imidazole]",antagonized the activity; also recorded: abrogated,–
–,zinc (II) [reference compound],–,can overcome the inhibition in luciferase activity
–,"recombinant G-CSF: the natural ligand (i.e. G-CSF or recombinant G-CSF) of the G-CSF receptor (protein, UniProt P09919 31-207, looked up) Granulocyte …: TPLGPASSLPQSFLLKCLEQVRKIQGDGAALQEKLVSECATYKLCHPEELVLLGHSLGIPWAPLSSCPSQALQLAGCLSQLHSGLFLYQGLLQALEGISPELGPTLDTLQLDVADFATTIWQQMEELGMAPALQPTQGAMPAFASAFQRRAGGVLVASHLQSFLEVSYRVLRHLAQP",little effect; also recorded: not mediated by metal ions,–
